Assays:
[1] = Compound was tested for inhibitory activity against sialidase from Clostridium perfringens; n.a. = not active
[2] = Compound was tested for inhibitory activity against sialidase from Vibrio cholerae
[3] = Compound was tested for inhibitory activity against sialidase from Salmonella Typhimurium; parameters: species or system Salmonella enterica subsp. enterica serovar Typhimurium

| SMILES | IC50 [1] | IC50 [2] [µM] | IC50 [3] [µM] |
| --- | --- | --- | --- |
| C=CCO[C@@H]1CC(P(=O)(O)O)=C[C@H](O)[C@H]1NC(C)=O.CCN(CC)CC.CCN(CC)CC | Not Active | 1500 | < 2000 |
| CC(=O)N[C@@H]1[C@@H](O)C=C(P(=O)(O)O)C[C@H]1OCC(O)CO.N.N (stereo partly specified) | Not Active |  | > 4000 |
| CC(=O)N[C@@H]1[C@H](O)C=C(P(=O)(O)O)C[C@H]1OCCO.N.N | Not Active | 1600 | 1800 |
| CC(=O)N[C@H]1[C@H](O)CC(P(=O)(O)O)=C[C@@H]1O.N.N | Not Active | 1800 | 1000 |
